Positions count from the first letter of the chain named. Where two headings read alike, the source gives them in different places. Blank lines part the entries; values can stand above or below the compound they belong to.
Experiments:
Assay type in all cases: cell-based
[1] = test system: LNCaP FGC cells; test: Inhibition of proliferation of LNCaP cells (WST-8)
Experimental: The cells were cultured in a cell culture incubator with 5% CO2 at 37° C. overnight. […] On the sixth day, 96 well plates were taken out, and 20 μL of WST-8 (Beytime, C0040) reagent was added to each well.

[2] = biological target: T1, AR protein (Homo sapiens, UniProt P10275, T878A); test: Degradation of AR protein in LNCaP cells (Western blot); settings: LNCaP cells, 8 hours, Western blot grayscale, GAPDH internal reference; for inhibition at 0.01 µM: compound 10 nM, read-out: Degradation rates of the AR protein in LNCaP cells, 10 nM (%); for inhibition at 0.1 µM: compound 100 nM, read-out: Degradation rates of the AR protein in LNCaP cells, 100 nM (%)
T1 construct: degradation activity of the compounds disclosed in the present disclosure on AR protein in LNCaP cells; host or cells: LNCaP FGC
T1 sequence (P10275 1-920 T878A): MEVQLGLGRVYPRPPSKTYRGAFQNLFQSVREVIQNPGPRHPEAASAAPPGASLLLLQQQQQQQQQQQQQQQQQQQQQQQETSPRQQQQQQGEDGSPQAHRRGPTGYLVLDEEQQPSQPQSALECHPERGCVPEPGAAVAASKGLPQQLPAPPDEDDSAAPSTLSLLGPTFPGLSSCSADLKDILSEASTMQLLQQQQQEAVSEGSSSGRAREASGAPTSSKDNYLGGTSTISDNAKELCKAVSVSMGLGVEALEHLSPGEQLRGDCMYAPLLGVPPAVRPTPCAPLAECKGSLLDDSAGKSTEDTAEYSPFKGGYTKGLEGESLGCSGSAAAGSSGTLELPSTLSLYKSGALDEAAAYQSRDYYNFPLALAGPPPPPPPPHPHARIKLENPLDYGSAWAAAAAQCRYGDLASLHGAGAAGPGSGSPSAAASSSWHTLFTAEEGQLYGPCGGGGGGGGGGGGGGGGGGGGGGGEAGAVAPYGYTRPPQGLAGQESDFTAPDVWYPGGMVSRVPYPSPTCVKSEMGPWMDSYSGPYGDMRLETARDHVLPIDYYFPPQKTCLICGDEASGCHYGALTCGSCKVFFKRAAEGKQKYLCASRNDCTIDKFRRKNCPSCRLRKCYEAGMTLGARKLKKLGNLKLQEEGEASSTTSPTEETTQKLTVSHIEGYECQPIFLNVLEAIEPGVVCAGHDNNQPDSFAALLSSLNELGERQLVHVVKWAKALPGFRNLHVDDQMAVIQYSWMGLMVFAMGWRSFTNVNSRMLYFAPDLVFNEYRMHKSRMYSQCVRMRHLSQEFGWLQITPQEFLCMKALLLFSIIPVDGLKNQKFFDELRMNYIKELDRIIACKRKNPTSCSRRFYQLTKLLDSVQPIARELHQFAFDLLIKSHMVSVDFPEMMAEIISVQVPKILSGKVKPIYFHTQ
Experimental: The degradation activity of the compounds disclosed in the present disclosure on AR protein in LNCaP cells (cell source: ATCC)
(§1) Corresponding solvent controls were also set and cultured for 8 hours. After 8 hours of cultivation, the culture medium was removed and the cells were washed with PBS. RIPA lysis buffer containing 1% Protease Inhibitor Cocktail was added, and the total protein extract was obtained by lysis and centrifugation. The protein concentration in the extract was detected by BCA method. Protein electrophoresis was performed using SDS-PAGE, followed by transfer of the protein onto a PVDF (Millipore Sigma catalog No. PSRP010R5) membrane at 100V constant voltage for 60 minutes. The PVDF membrane was then placed in a 1×TBST solution with 5% milk and blocked at room temperature for 1 hour. […] The primary antibody solution was discarded and the PVDF membrane was washed three times with 1×TBST for 5 minutes/time. […] The secondary antibody solution was discarded and the PVDF membrane was washed three times with 1×TBST for 5 minutes/time. Western blot imaging was performed by using a dual color infrared laser imaging system (Licor catalog No. Odyssey CLX). Bands were analyzed in grayscale using Image Studio software. For each sample, GAPDH protein bands were detected as internal reference. The degradation rates of the AR protein for the compounds and the positive control sample were calculated based on grayscale of the protein bands.

[3] = biological target: T2, AR protein (Homo sapiens, UniProt P10275); test: Degradation of AR protein in VCaP cells (Western blot); settings: 8 hours; for inhibition at 0.01 µM: compound at 10 nM, read-out: Degradation rate of the AR protein in VCaP cells, 10 nM (%); for inhibition at 0.1 µM: compound at 100 nM, read-out: Degradation rate of the AR protein in VCaP cells, 100 nM (%)
T2 construct: degradation activity of the compounds disclosed in the present disclosure on AR protein in VCaP cells; host or cells: VCaP
T2 sequence (P10275 1-920): T1 sequence (P10275 1-920 T878A) with A878T
Experimental: The degradation activity of the compounds disclosed in the present disclosure on AR protein in VCaP cells (cell source: ATCC)
as §1

[4] = Homo sapiens, LNCaP, 96 h, LNCaP FGC cells, 96 hours, WST-8 absorbance at 450 nm, read-out: IC50 for inhibiting the proliferation of LNCaP cells
[5] = Homo sapiens, LNCaP, 96 h, read-out: IC50 for inhibiting the proliferation of LNCaP cells, LNCaP FGC cells, 96 hours, WST-8 absorbance at 450 nm
[6] = LNCaP FGC cells, 96 hours, WST-8 absorbance at 450 nm, read-out: IC50 for inhibiting the proliferation of LNCaP cells

Compound: CC1(C)C(=O)N(c2ccc(C#N)c(C(F)(F)F)c2)C(=S)N1c1ccc(C(=O)N2CCC3(CCC(N4CCC5(CCc6cc7c(cc6O5)C(=O)N(C5CCC(=O)NC5=O)C7=O)CC4)CC3)C2)c(F)c1 (stereo not shown) [Compound 129]
IC50 [1, 4]: 3.63 µM

Compound: CC1(C)C(=O)N(c2ccc(C#N)c(C(F)(F)F)c2)C(=S)N1c1ccc(C(=O)N2CC3(CC(N4CCC5(CC4)COc4cc6c(cc4C5)C(=O)N(C4CCC(=O)NC4=O)C6=O)C3)C2)c(F)c1 (stereo not shown) [Compound 115]
IC50 [1, 5]: 10.8 µM

inhibition at 0.01 µM [2]: 27%
inhibition at 0.1 µM [2]: 55%
IC50 [1, 4]: 12.1 µM
Compound: COc1cc(O[C@H]2C(C)(C)[C@H](NC(=O)c3ccc(N4CCC(CN5CCC6(CCc7ccc8c(c7O6)CN(C6CCC(=O)NC6=O)C8=O)CC5)CC4)cc3)C2(C)C)ccc1C#N (stereo partly shown) [Compound 298]

Compound: CC1(C)C(=O)N(c2ccc(C#N)c(C(F)(F)F)c2)C(=S)N1c1ccc(C(=O)N2CC(CN3CCC4(CC3)COc3cc5c(cc3C4)C(=O)N(C3CCC(=O)NC3=O)C5=O)C2)c(F)c1 (stereo not shown) [Compound 128]
IC50 [1, 4]: 4.16 µM

IC50 [1, 4]: 72.7 µM
Compound: CC1(CN2CCC3(CCc4ccc5c(c4O3)CN(C3CCC(=O)NC3=O)C5=O)CC2)CCN(c2ccc(C(=O)N[C@H]3CC[C@H](Oc4ccc(C#N)c(Cl)c4)CC3)nn2)CC1 (stereo partly shown) [Compound 151]

Compound: CC1(C)C(=O)N(c2ccc(C#N)c(C(F)(F)F)c2)C(=S)N1c1ccc(C(=O)N2CC[C@@H](CN3CCC4(CCc5cc6c(cc5O4)C(=O)N(C4CCC(=O)NC4=O)C6=O)CC3)C2)c(F)c1 (stereo partly shown) [Compound 127]
IC50 [1, 4]: 6.28 µM

IC50 [1, 6]: 4.35 µM
Compound: N#Cc1ccc(O[C@H]2CC[C@H](NC(=O)c3ccc(N4CCC(F)(CN5CCC6(CCc7ccc8c(c7O6)CN(C6CCC(=O)NC6=O)C8=O)CC5)CC4)nn3)CC2)cc1Cl (stereo partly shown) [Compound 132]

Compound: CC1(CN2CCC3(CCc4cc5c(cc4O3)C(=O)N(C3CCC(=O)NC3=O)C5=O)CC2)CCN(C(=O)c2ccc(N3C(=S)N(c4ccc(C#N)c(C(F)(F)F)c4)C(=O)C3(C)C)cc2F)CC1 (stereo not shown) [Compound 108]
IC50 [1, 5]: 10.4 µM

IC50 [1, 6]: 23.7 µM
Compound: COC1(CN2CCC3(CCc4ccc5c(c4O3)CN(C3CCC(=O)NC3=O)C5=O)CC2)CCN(c2ccc(C(=O)N[C@H]3CC[C@H](Oc4ccc(C#N)c(Cl)c4)CC3)nn2)CC1 (stereo partly shown) [Compound 133]

Compound: CC1(C)C(=O)N(c2ccc(C#N)c(C(F)(F)F)c2)C(=S)N1c1ccc(C(=O)N2CCC(CN3CC4(CCc5cc6c(cc5O4)C(=O)N(C4CCC(=O)NC4=O)C6=O)C3)CC2)c(F)c1 (stereo not shown) [Compound 119]
IC50 [1, 5]: 4.11 µM

Compound: CC1(C)C(=O)N(c2ccc(C#N)c(C(F)(F)F)c2)C(=S)N1c1ccc(C(=O)N2CCC3(CC2)CC(N2CCC4(CC2)COc2cc5c(cc24)C(=O)N(C2CCC(=O)NC2=O)C5=O)C3)c(F)c1 (stereo not shown) [Compound 122]
IC50 [1, 5]: 13.7 µM

Compound: CC1(C)C(=O)N(c2ccc(C#N)c(C(F)(F)F)c2)C(=S)N1c1ccc(C(=O)N2CC3(CCC(N4CCC5(CCc6cc7c(cc6O5)C(=O)N(C5CCC(=O)NC5=O)C7=O)CC4)CC3)C2)c(F)c1 (stereo not shown) [Compound 117]
IC50 [1, 5]: 2.57 µM

Compound: N#Cc1ccc(O[C@H]2CC[C@H](NC(=O)c3ccc(N4CCC(C#N)(CN5CCC6(CC5)COc5c6ccc6c5CN(C5CCC(=O)NC5=O)C6=O)CC4)nn3)CC2)cc1Cl (stereo partly shown) [Compound 156]
inhibition at 0.01 µM [2]: 52%
inhibition at 0.1 µM [2]: 53%
inhibition at 0.01 µM [3]: 37%
inhibition at 0.1 µM [3]: 75%

Compound: CC1(C)C(=O)N(c2ccc(C#N)c(C(F)(F)F)c2)C(=S)N1c1ccc(C(=O)N2CC[C@@H](CN3CCC4(CC3)COc3cc5c(cc3C4)C(=O)N(C3CCC(=O)NC3=O)C5=O)C2)c(F)c1 (stereo partly shown) [Compound 126]
IC50 ([1]; read-out: IC50 for inhibiting the proliferation of LNCaP cells, LNCaP FGC cells, 96 hours, WST-8 absorbance at 450 nm): 4.06 µM

Compound: CCOC1(CN2CCC3(CC2)COc2c3ccc3c2CN(C2CCC(=O)NC2=O)C3=O)CCN(c2ccc(C(=O)N[C@H]3CC[C@H](Oc4ccc(C#N)c(Cl)c4)CC3)nn2)CC1 (stereo partly shown) [Compound 155]
inhibition at 0.01 µM [2]: 29%
inhibition at 0.1 µM [2]: 1%
inhibition at 0.01 µM [3]: 58%
inhibition at 0.1 µM [3]: 80%

inhibition at 0.01 µM [2]: 67%
inhibition at 0.1 µM [2]: 70%
inhibition at 0.01 µM [3]: 72%
inhibition at 0.1 µM [3]: 57%
Compound: N#Cc1ccc(O[C@H]2CC[C@H](NC(=O)c3ccc(N4CCC(CN5CCC6(CC5)Cc5cc7c(cc5O6)C(=O)N(C5CCC(=O)NC5=O)C7=O)CC4)nn3)CC2)cc1Cl (stereo partly shown) [Compound 78]

Compound: CC1(C)C(=O)N(c2ccc(C#N)c(C(F)(F)F)c2)C(=S)N1c1ccc(C(=O)N2CCC(CN3CCC4(CC3)COc3cc5c(cc3O4)CN(C3CCC(=O)NC3=O)C5=O)CC2)c(F)c1 (stereo not shown) [Compound 111]
IC50 [1, 5]: 5.72 µM

Compound: N#Cc1ccc(O[C@H]2CC[C@H](NC(=O)c3ccc(N4CCC5(CC4)CC(N4CCC6(CC4)COc4cc7c(cc46)C(=O)N(C4CCC(=O)NC4=O)C7=O)C5)nn3)CC2)cc1Cl (stereo partly shown) [Compound 47]
inhibition at 0.01 µM [2]: 54%
inhibition at 0.1 µM [2]: 67%
inhibition at 0.01 µM [3]: 82%
inhibition at 0.1 µM [3]: 79%

IC50 [1, 6]: 0.73 µM
Compound: CC1(CN2CC3(CCc4cc5c(cc4O3)CN(C3CCC(=O)NC3=O)C5=O)C2)CCN(c2ccc(C(=O)N[C@H]3CC[C@H](Oc4ccc(C#N)c(Cl)c4)CC3)nn2)CC1 (stereo partly shown) [Compound 12]

IC50 [1, 4]: 0.39 µM
Compound: CC1(CN2CCC3(CC2)COc2c(ccc4c2C(=O)N(C2CCC(=O)NC2=O)C4)C3)CCN(c2ccc(C(=O)NC3CCC(Oc4ccc(C#N)c(Cl)c4)CC3)nn2)CC1 (stereo not shown) [Compound 187]

Source: patent US20260234157A1, “COMPOUND AND METHOD FOR TARGETED DEGRADATION OF ANDROGEN RECEPTOR” (Gan & Lee Pharmaceuticals Co., Ltd., priority 2023, published 2026)
